pIC50: −log10 of the molar value. Where a SMILES comes first, the peptide text is derived from it. The star is where a group is joined. Cbz = O=C(OCc1ccccc1)*
Tests used:
[1] = system: IRS-2; assay: 32P metabolic labeling and immunoprecipitation of IRS-2, Mv1Lu cells; assay type: cell-based, mink; settings: for Effect of proteolysis inhibitors on IGFBP-3-induced mobility change of IRS-2: Mv1Lu, 1 hr prior to and during IGFBP-3 treatment
[2] = target: acidic pH binding sites (Neogale vison, UniProt A0A8C7BSJ2); assay: Specific binding of 125I-ligands to Mv1Lu cells at acidic pH; parameters: species or system mink; settings: for Specific binding of ^125I-α2M*: 10 μM protein, pH 5.5, Mv1Lu
Sequence of acidic pH binding sites (Neogale vison, UniProt A0A8C7BSJ2) (A0A8C7BSJ2 entry or part of it): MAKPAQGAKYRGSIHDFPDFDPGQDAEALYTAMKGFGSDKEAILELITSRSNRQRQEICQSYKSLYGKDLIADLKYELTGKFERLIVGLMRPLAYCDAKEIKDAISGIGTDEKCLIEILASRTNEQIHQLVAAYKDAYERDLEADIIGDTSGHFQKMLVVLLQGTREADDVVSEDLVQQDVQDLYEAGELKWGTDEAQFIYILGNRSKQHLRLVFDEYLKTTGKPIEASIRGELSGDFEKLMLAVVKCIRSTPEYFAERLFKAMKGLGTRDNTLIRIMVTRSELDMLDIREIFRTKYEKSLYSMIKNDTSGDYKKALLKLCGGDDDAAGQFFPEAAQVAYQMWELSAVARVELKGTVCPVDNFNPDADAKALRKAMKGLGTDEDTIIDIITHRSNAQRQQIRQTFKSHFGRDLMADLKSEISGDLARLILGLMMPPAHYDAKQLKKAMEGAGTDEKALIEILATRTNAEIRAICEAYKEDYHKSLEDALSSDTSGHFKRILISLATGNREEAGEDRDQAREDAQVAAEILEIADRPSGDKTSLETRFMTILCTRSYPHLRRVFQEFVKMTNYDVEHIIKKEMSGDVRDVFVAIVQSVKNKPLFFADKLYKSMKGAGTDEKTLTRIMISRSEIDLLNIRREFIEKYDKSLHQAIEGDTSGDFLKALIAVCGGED

[3] = system: LRP-1; assay: 125I-α2M* binding to Mv1Lu cells at pH 7.4; parameters: species or system mink; settings: for ^125I-α2M* binding to LRP-1: 10 μg/ml, neutral pH, Mv1Lu cells; for ^125I-α2M* binding: 10 μM protein, pH 7.4, Mv1Lu
[4] = target: T1, LRP-1 (Mus musculus, UniProt Q91ZX7); assay: 125I-α2M* binding to MEF cells at pH 7.4; settings: for ^125I-α2M* binding: 10 μM protein, pH 7.4, MEF
T1 construct: endogenous in cells; host or cells: MEF (mouse embryonic fibroblasts)
T1 sequence (Q91ZX7 20-4545): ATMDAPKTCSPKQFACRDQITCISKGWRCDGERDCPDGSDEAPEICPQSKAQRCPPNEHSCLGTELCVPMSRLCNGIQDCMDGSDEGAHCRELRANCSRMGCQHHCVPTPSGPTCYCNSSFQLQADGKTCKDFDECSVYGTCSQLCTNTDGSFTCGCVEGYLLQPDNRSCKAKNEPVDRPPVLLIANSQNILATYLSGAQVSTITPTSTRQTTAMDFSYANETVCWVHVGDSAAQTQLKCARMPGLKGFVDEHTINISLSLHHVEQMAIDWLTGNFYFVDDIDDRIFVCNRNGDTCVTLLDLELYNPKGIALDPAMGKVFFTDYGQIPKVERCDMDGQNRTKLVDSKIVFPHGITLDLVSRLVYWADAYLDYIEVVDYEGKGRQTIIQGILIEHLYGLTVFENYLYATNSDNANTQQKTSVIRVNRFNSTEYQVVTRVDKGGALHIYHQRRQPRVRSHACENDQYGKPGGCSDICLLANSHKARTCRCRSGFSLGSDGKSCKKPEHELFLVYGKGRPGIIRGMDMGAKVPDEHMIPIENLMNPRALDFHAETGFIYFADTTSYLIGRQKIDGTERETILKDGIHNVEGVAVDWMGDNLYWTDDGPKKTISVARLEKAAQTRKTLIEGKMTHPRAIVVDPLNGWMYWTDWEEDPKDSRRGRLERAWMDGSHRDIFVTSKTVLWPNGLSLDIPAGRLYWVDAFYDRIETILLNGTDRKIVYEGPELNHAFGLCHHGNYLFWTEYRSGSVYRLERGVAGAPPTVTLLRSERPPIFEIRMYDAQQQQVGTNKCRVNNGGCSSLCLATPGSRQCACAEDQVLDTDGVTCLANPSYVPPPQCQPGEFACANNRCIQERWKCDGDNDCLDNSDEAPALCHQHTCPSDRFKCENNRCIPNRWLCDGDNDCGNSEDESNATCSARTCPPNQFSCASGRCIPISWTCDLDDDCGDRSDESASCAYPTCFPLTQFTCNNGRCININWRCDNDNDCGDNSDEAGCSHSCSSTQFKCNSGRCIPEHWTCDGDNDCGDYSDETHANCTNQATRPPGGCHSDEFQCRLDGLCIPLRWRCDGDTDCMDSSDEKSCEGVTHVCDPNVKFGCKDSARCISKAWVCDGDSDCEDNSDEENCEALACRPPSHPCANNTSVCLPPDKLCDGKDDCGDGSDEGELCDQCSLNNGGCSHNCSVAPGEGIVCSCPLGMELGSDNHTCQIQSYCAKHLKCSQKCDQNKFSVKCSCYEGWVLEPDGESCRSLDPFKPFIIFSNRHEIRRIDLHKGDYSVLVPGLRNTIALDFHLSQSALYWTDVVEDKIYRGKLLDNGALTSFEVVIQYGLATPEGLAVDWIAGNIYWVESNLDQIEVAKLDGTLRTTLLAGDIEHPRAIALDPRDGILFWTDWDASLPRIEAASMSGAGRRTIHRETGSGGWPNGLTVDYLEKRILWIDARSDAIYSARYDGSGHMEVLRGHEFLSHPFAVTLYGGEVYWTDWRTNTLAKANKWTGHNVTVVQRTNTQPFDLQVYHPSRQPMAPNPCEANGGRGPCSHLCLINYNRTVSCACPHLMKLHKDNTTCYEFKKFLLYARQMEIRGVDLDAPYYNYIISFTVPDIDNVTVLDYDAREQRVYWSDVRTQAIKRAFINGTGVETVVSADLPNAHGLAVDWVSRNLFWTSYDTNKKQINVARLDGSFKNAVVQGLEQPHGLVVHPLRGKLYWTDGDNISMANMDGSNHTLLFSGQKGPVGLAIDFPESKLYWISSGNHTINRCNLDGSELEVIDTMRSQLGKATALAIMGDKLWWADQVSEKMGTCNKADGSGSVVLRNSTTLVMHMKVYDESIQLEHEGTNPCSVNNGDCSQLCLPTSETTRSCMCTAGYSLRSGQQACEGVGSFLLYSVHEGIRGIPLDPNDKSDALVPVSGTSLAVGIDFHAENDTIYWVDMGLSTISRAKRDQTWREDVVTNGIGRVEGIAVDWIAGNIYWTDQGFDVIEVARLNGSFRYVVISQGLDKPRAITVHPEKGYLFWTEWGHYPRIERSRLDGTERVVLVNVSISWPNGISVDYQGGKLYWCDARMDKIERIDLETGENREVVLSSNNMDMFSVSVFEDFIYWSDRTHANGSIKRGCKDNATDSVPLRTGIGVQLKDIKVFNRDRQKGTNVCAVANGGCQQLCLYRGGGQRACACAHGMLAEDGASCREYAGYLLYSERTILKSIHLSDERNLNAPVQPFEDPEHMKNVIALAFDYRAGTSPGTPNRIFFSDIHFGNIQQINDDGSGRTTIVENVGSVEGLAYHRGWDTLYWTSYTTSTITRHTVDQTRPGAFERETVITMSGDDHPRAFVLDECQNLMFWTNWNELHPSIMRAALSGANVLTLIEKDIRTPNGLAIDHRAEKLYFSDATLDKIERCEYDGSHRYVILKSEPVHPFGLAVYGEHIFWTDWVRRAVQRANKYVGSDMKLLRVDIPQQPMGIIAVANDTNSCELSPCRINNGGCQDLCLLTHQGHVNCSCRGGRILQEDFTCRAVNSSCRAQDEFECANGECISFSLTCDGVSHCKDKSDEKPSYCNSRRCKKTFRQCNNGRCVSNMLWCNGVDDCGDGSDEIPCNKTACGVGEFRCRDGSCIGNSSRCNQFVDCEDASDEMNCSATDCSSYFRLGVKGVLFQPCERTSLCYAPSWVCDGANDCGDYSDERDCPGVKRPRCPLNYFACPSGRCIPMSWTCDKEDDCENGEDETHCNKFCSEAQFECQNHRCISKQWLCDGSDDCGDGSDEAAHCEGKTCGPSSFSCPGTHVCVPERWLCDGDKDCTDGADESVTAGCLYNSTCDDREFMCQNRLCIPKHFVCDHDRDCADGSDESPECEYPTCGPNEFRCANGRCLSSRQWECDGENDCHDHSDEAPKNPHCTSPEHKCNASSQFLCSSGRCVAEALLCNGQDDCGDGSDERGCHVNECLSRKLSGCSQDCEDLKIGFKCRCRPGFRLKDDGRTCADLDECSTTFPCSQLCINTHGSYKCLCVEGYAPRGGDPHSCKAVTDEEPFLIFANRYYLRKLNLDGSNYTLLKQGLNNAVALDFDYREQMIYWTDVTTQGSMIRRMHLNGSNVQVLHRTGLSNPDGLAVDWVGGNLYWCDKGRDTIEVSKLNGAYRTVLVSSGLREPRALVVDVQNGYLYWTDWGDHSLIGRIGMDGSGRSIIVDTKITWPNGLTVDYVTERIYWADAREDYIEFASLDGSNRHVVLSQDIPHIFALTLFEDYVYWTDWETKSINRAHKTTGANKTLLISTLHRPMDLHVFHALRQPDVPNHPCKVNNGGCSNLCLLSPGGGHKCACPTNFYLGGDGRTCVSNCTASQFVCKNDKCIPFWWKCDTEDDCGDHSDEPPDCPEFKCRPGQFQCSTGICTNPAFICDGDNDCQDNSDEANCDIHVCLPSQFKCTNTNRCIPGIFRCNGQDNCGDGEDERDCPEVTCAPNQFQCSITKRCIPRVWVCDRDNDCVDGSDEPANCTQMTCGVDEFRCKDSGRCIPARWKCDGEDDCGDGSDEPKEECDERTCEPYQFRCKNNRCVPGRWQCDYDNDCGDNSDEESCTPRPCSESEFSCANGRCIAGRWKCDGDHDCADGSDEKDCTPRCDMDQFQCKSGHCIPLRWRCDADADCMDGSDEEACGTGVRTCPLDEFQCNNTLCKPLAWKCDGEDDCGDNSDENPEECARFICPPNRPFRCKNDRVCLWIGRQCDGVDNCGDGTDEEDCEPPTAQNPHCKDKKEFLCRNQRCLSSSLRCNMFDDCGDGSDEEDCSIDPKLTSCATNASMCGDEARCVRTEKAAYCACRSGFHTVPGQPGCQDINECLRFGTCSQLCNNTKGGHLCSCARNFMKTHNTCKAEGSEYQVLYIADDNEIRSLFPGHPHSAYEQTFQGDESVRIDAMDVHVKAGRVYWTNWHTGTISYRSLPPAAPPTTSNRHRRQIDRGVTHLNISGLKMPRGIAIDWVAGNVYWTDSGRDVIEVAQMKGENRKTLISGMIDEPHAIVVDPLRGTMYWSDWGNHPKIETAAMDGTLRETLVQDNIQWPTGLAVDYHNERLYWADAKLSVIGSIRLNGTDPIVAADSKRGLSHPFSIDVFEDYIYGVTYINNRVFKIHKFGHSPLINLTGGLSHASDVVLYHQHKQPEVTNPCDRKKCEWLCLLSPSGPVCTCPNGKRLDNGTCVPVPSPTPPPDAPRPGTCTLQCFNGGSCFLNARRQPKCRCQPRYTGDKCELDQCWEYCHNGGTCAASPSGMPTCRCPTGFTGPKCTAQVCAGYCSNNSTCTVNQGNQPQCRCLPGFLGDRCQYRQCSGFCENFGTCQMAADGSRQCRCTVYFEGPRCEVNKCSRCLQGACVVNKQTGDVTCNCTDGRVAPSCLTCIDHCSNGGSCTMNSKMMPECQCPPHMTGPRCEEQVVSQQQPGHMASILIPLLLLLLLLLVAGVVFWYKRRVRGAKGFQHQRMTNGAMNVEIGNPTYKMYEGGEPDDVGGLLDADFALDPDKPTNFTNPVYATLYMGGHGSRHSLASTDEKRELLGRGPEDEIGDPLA

[5] = target: T2, acidic pH binding sites (Mus musculus, UniProt P14824); assay: Specific binding of 125I-ligands to MEF cells at acidic pH; settings: for Specific binding of ^125I-α2M*: 10 μM protein, pH 5.5, MEF; for Inhibition of ^125I-α2M* binding to cells: MEF cells, pH 5.5, verapamil and W-5 at 100 μM
T2 sequence (P14824 2-673): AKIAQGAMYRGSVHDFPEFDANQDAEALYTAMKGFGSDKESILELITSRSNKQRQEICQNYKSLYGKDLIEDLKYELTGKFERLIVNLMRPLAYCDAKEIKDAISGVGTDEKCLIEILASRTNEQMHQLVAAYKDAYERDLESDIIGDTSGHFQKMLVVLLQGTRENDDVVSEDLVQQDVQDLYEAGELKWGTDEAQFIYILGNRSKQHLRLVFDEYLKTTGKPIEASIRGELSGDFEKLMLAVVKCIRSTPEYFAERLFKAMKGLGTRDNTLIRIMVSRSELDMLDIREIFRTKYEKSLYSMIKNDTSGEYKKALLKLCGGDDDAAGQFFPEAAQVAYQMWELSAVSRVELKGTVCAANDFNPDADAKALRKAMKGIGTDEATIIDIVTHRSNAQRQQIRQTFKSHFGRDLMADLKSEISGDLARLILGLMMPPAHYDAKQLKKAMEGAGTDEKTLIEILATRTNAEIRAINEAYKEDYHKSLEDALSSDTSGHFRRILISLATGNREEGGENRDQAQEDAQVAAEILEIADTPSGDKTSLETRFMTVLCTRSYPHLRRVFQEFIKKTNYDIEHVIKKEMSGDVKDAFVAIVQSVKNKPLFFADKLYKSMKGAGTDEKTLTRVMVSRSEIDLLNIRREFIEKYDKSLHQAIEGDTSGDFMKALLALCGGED

[6] = target: T2, acidic pH binding sites; assay: Specific binding of 125I-ligands to PEA-13 cells at acidic pH; parameters: endogenous in cells; host or cells: PEA-13 (LRP-1-deficient mouse embryonic fibroblasts); settings: for Specific binding of ^125I-α2M*: 10 μM protein, pH 5.5, PEA-13
[7] = system: Mv1Lu cells; assay: [methyl-3H] thymidine incorporation (DNA synthesis), Mv1Lu cells; assay type: cell-based, mink; settings: insulin 10 nM or cyclic RGD peptide 0.01 μg/ml alone
[8] = system: Mv1Lu cells; assay: Internalization and degradation of cell surface-bound 125I-TGF-β1 or 125I-α2M*, Mv1Lu cells; assay type: cell-based, mink; settings: 10 μM, pH 7.4, 1 hr at 37° C.
Experimental: After 1 hr at 37° C., the medium was collected and precipitated with 10% trichloroacetic acid (TCA). The TCA-soluble radioactive material in the medium represented the cellular degradation products of 125I-TGF-β1 or 125I-α2M*. The cells were then treated with trypsin (5 mg/ml), maintained for 20 min at 0° C. and centrifuged. The radioactivity in the supernate and cell pellets represented cell surface-bound and internalized 125I-TGF-β1 or 125I-α2M*, respectively. The experiments were performed in quadruplicate.
After 2.5 hr, cells were washed, then warmed to 37° C.

Compound: CC1(C(=O)O)C2CCC(O2)C1(C)C(=O)O (centres unmarked) [cantharidic acid, reference compound]
- Effect of phosphatase inhibitors on IGFBP-3-induced specific dephosphorylation / mobility change of IRS-2 [1]: did not appear to affect

Compound: chondroitin sulfate A [reference compound]
- Inhibition of ^125I-α2M* binding ([2]; Mv1Lu cells, pH 5): potent inhibitors
- ^125I-α2M* binding to LRP-1 [3]: did not significantly affect

Compound: apoE: human apoE
- ^125I-α2M* binding [4]: did not have a significant effect
- Specific binding of ^125I-α2M* [5]: completely blocked
- Specific binding of ^125I-α2M* [2]: completely blocked
- Specific binding of ^125I-α2M* [6]: completely blocked
- ^125I-α2M* binding [3]: did not have a significant effect

Compound: CC(C)C[C@@H](C=O)NC(=O)[C@H](CC(C)C)NC(=O)[C@H](CC(C)C)NC(=O)OCc1ccccc1 [MG-132, reference compound] (Cbz-Leu-Leu-Leu-aldehyde)
- Effect of proteolysis inhibitors on IGFBP-3-induced mobility change of IRS-2 [1]: did not affect

Compound: COC[C@@H]([C@H](O)[C@H](O)C(=O)NCC[C@H](C)c1nc(/C=C/C[C@@H]2O[C@]3(C[C@@H](O)[C@@H]2C)O[C@H]([C@H](C[C@H](O)[C@H](C)[C@H](O)[C@H](C)/C=C(C)/C(C)=C/C=C/C(C)=C\C#N)OC)[C@H](OP(=O)(O)O)C3(C)C)co1)N(C)C [calyculin A, reference compound]
- Effect of phosphatase inhibitors on IGFBP-3-induced specific dephosphorylation / mobility change of IRS-2 [1]: did not appear to affect

Compound: cyclo GRGDSPA (cyclic) [cyclic RGD peptide, reference compound]
- Effect alone on TGF-β1-induced inhibition of DNA synthesis [7]: Neither insulin (10 nM) nor the cyclic RGD peptide (0.01 μg/ml) alone affected

Compound: C=C1[C@@H](O)[C@@H]2O[C@]3(CC[C@H](/C=C/[C@@H](C)[C@@H]4CC(C)=C[C@@]5(O[C@H](C[C@@](C)(O)C(=O)O)CC[C@H]5O)O4)O3)CC[C@H]2O[C@@H]1[C@@H](O)C[C@H](C)[C@H]1O[C@@]2(CCCCO2)CC[C@H]1C [okadaic acid, reference compound]
- Effect of phosphatase inhibitors on IGFBP-3-induced specific dephosphorylation / mobility change of IRS-2 [1]: effectively blocked

Compound: OCCN1CCN(CCCN2c3ccccc3Sc3ccc(C(F)(F)F)cc32)CC1 [fluphenazine]
- Degradation of cell surface-bound ^125I-TGF-β1 or ^125I-α2M* [8]: completely inhibits

Compound: transferrin: human transferrin
- ^125I-α2M* binding [4]: did not have a significant effect
- Specific binding of ^125I-α2M* [5]: completely blocked
- Specific binding of ^125I-α2M* [2]: completely blocked
- pIC50 ([2]; Mv1Lu cells, pH 5 or 6, read-out: IC50, inhibition of ^125I-α2M* binding to cells): ~6.30
- Specific binding of ^125I-α2M* [6]: completely blocked
- ^125I-α2M* binding [3]: did not have a significant effect

Compound: [O]=[V]([O-])([O-])[O-] [vanadale, reference compound]
- Effect of phosphatase inhibitors on IGFBP-3-induced specific dephosphorylation / mobility change of IRS-2 [1]: did not appear to affect

Compound: NCCCCCCNS(=O)(=O)c1cccc2c(Cl)cccc12 [W-7, reference compound]
- Inhibition of ^125I-α2M* binding to cells [5]: less effective inhibitors

Compound: CSCC[C@@H](C=O)NC(=O)[C@H](CC(C)C)NC(=O)[C@H](CC(C)C)NC(C)=O [calpain inhibitor II, reference compound] (Ac-Leu-Leu-Met-aldehyde)
- Effect of proteolysis inhibitors on IGFBP-3-induced mobility change of IRS-2 [1]: did not affect

Compound: microcystin [reference compound]
- Effect of phosphatase inhibitors on IGFBP-3-induced specific dephosphorylation / mobility change of IRS-2 [1]: did not appear to affect

Compound: heparin sulfate [reference compound]
- Enhancement of ^125I-α2M* binding ([2]; 1 μg/ml, Mv1Lu cells, pH 5): ~400%
- Inhibition of ^125I-α2M* binding ([2]; 10 μg/ml, Mv1Lu cells, pH 5): > 80%
- ^125I-α2M* binding to LRP-1 [3]: did not significantly affect

Compound: Pseudomonas exotoxin: a ligand of LRP-1
- Inhibition of ^125I-α2M* binding to cells ([2]; 0.5 μM, Mv1Lu cells, pH 5 or 6): did not effectively inhibit

Compound: CN(C)c1cccc2c(S(=O)(=O)NCCCCCN)cccc12 [monodansylcadaverine, reference compound]
- Inhibition of ^125I-α2M* binding to cells [5]: less effective inhibitors

Compound: chondroitin sulfate B [reference compound]
- Inhibition of ^125I-α2M* binding ([2]; Mv1Lu cells, pH 5): potent inhibitors
- ^125I-α2M* binding to LRP-1 [3]: did not significantly affect

Compound: chondroitin sulfate C [reference compound]
- Inhibition of ^125I-α2M* binding ([2]; Mv1Lu cells, pH 5): potent inhibitors
- ^125I-α2M* binding to LRP-1 [3]: did not significantly affect

Compound: CC(CN1c2ccccc2Sc2ccccc21)N(C)C (centres unmarked) [promethazine, reference compound]
- Inhibition of ^125I-α2M* binding ([4]; MEF cells, pH 7.4): almost as effective as trifluoperazine and fluphenazine
- Inhibition of ^125I-α2M* binding to cells [5]: not effective
- Degradation of cell surface-bound ^125I-TGF-β1 or ^125I-α2M* [8]: did not exhibit any significant effect
- Degradation of cell surface-bound ^125I-TGF-β1 or ^125I-α2M* ([8]; listed as Promethazine): ineffective

Compound: NCCCCCCNS(=O)(=O)c1cccc2ccccc12 [W-5, reference compound]
- Inhibition of ^125I-α2M* binding to cells [5]: inactive

Compound: native α2M: human α2-macroglobulin purified from plasma
- pIC50 ([6]; PEA-13 cells, acidic pH, read-out: IC50, inhibition of ^125I-α2M* binding): < 6.40
